# Several values for one entry are separate records, joined by “and”; a condition that tells them apart may be missing. Identical values can stand only once.
# Columns and labels:
# porcine islets = assay: Porcine islet isolation; type: cell-based, pig
# Lewis rats = assay: Endotoxin-induced uveitis (EIU), duration of action after subconjunctival injection; type: in vivo, rat
# [1] = Previous open-label dose-escalation trial in post-surgery/post-trauma intraocular inflammation; type: in vivo, human; details: 45, 90, 450, 900 μg subconj., 20 patients
# db/db mice = assay: db/db mouse model of type 2 diabetes; type: in vivo
# C57BL/6 mice = assay: Bleomycin-induced lung fibrosis, day 10; type: in vivo, mouse; details: for lymphocyte recruitment and total cell number in BAL: 3x in 10 days; for decrease of inflammatory cell accumulation, fibrotic areas, loss of lung architecture (histology): day 10
# Wistar rats = assay: Puromycin aminonucleoside (PAN)-induced nephropathy, 56 days; type: in vivo, rat
# rat pancreatic islets = assay: Rat islet isolation after warm ischemia; type: cell-based
# [2] = system: female Sprague-Dawley rats; assay: Cystometry in conscious rats with CYP-induced cystitis; type: in vivo, rat; details: 2 mg/kg i.v.; 30-60 min post-dose; P<0.01
# [3] = system: HCT 116 tumours in SCID mice; assay: Orthotopic HCT 116 human colon tumour; type: in vivo, mouse
# [4] = system: Varicella Zoster Virus (VZV); assay: Plaque reduction assay against VZV in HFFs; type: cell-based; details: for VZV spread (pfu) ± SD: 24 h
# [5] = system: Varicella Zoster Virus (VZV); assay: VZV-BAC-Luc replication (luciferase) in HFFs; type: cell-based; details: 24 h
# [6] = Immunostaining of liver 24 h after 1 mg/kg i.v.; type: in vivo, rat; details: Fig. 26
# [7] = Ocular MTD study, subconjunctival; type: in vivo, rabbit
# Sprague-Dawley rats [8] = assay: STZ diabetic nephropathy model, chronic administration; type: in vivo, rat; details: 1, 2, 4 mg/kg i.v. weekly, 9 weeks
# THP-1 cells = assay: LPS-induced cytokine release; type: cell-based; details: Fig. 27 A-C
# [9] = Ocular pharmacokinetics after single and repeated subconjunctival administration; type: in vivo, rabbit
# [10] = system: Huh7 tumours in nude mice; assay: Huh7 human liver cancer xenograft; type: in vivo, mouse; details: 5 mg/kg i.p. twice weekly, 4 weeks
# [11] = system: primary mouse cortical neurons; assay: JNK activation in cortical neurons under H2O2 oxidative stress; type: cell-based; details: 5 μM pre-treatment; 1 mM H2O2 15 min
# [12] = system: recombinant JNK1, JNK2, JNK3; assay: Solid-phase kinase assay: JNK-mediated phosphorylation of c-Jun, ATF2, Elk1; type: biochemical; details: GST-Jun (aa 1-73), 0-250 μM
# [13] = system: Hep G2 tumours in SWISS nude mice; assay: Orthotopic Hep G2 human liver carcinoma, 1 mg/kg; type: in vivo, mouse
# [14] = system: female Sprague-Dawley rats; assay: Cyclophosphamide (CYP)-induced acute cystitis, intravesical treatment; type: in vivo, rat; details: 24 h after CYP
# Sprague-Dawley rats [15] = assay: Bilateral renal ischemia reperfusion, histology; type: in vivo, rat
# [16] = 20 μg/eye, 1 day before induction
# [17] = 20 μg/eye, 2 days before induction
# [18] = 20 μg/eye, 7 days before induction
# [19] = 20 μg/eye, 14 days before induction
# [20] = 20 μg/eye, 21 days before induction
# [21] = 20 μg/eye, 28 days before induction
substance,measurement,setting,value
NH2-DQSRPVQPFLNLTTPRKPRPPRRRQRRKKRG-COOH (H-DQSRPVQPFLNLTTPRKPRPPRRRQRRKKRG-OH; also: D-amino acids (positions not given here)) [XG-102],"isolations with OCR/DNA above cut-off, successfully transplanted into NHPs",porcine islets,6/6
same,relative c-fos gene expression,porcine islets; 10 μM,감소시키고
same,JNK activation during isolation,porcine islets; 10 μM in pancreas and isolation solutions,차단하고
same,"viability of freshly isolated islets (OCR/DNA, ATP/protein)",porcine islets; 10 μM vs paired untreated control,통계적으로 현저하고 중요한 영향을 가짐
same,"clinical score, mean ± SEM (n=20)","Lewis rats; 20 μg/eye subconj., day of induction, 24 h after LPS, vehicle 4.0 ± 0.2",2.8 ± 0.2
same,"clinical score, mean ± SEM (n=20)",Lewis rats; [16],1.6 ± 0.1
same,"clinical score, median",Lewis rats; [16],1.5
same,"leukocytes in aqueous humor, mean ± SEM (n=20)",Lewis rats; [16],1668 ± 149 세포/μL
same,"leukocytes in aqueous humor, median",Lewis rats; [16],1540 세포/μL
same,reduction of clinical score,Lewis rats; [16],60%
same,reduction of leukocyte infiltration,Lewis rats; [16],48%
same,"clinical score, mean ± SEM (n=20)",Lewis rats; [17],1.8 ± 0.2
same,"clinical score, median",Lewis rats; [17],2.0
same,"leukocytes in aqueous humor, mean ± SEM (n=20)",Lewis rats; [17],1844 ± 232 세포/μL
same,"leukocytes in aqueous humor, median",Lewis rats; [17],1500 세포/μL
same,reduction of clinical score,Lewis rats; [17],55%
same,reduction of leukocyte infiltration,Lewis rats; [17],43%
same,"clinical score, mean ± SEM (n=20)",Lewis rats; [18],3.3 ± 0.2
same,"clinical score, median",Lewis rats; [18],3.0
same,"leukocytes in aqueous humor, mean ± SEM (n=20)",Lewis rats; [18],2878 ± 331 세포/μL
same,"leukocytes in aqueous humor, median",Lewis rats; [18],2473 세포/μL
same,reduction of clinical score,Lewis rats; [18],18%
same,reduction of leukocyte infiltration,Lewis rats; [18],11%
same,"clinical score, mean ± SEM (n=20)",Lewis rats; [19],2.9 ± 0.2
same,"clinical score, median",Lewis rats; [19],3.0
same,"leukocytes in aqueous humor, mean ± SEM (n=20)",Lewis rats; [19],976 ± 143 세포/μL
same,"leukocytes in aqueous humor, median",Lewis rats; [19],648 세포/μL
same,reduction of clinical score,Lewis rats; [19],28%
same,reduction of leukocyte infiltration,Lewis rats; [19],70%
same,"clinical score, mean ± SEM (n=20)",Lewis rats; [20],3.1 ±0.3
same,"clinical score, median",Lewis rats; [20],3.0
same,"leukocytes in aqueous humor, mean ± SEM (n=20)",Lewis rats; [20],1029 ± 164 세포/μL
same,"leukocytes in aqueous humor, median",Lewis rats; [20],1023 세포/μL
same,reduction of clinical score,Lewis rats; [20],23%
same,reduction of leukocyte infiltration,Lewis rats; [20],68%
same,"clinical score, mean ± SEM (n=20)",Lewis rats; [21],3.3 ± 0.2
same,"clinical score, median",Lewis rats; [21],4.0
same,"leukocytes in aqueous humor, mean ± SEM (n=20)",Lewis rats; [21],1260 ± 263 세포/μL
same,"leukocytes in aqueous humor, median",Lewis rats; [21],915 세포/μL
same,reduction of clinical score,Lewis rats; [21],18%
same,reduction of leukocyte infiltration,Lewis rats; [21],61%
same,"clinical score, median","Lewis rats; 20 μg/eye, day of induction",3.0
same,"leukocytes in aqueous humor, median","Lewis rats; 20 μg/eye, day of induction",2005 세포/μL
same,reduction of clinical score,"Lewis rats; 20 μg/eye, day of induction",30%
same,reduction of leukocyte infiltration,"Lewis rats; 20 μg/eye, day of induction",31%
same,"leukocytes in aqueous humor, mean ± SEM (n=20)","Lewis rats; 20 μg/eye, day of induction, vehicle 3236 ± 346",2226 ± 192 세포/μL
same,safety and tolerability,[1],안정하고 내약성이 우수하다
same,effect on fasting blood glucose,db/db mice; 1 mg/kg s.c. daily 28 days,효과가 관찰되지 않았다
same,effect on body weight,"db/db mice; 1 mg/kg, 28 days",효과가 관찰되지 않았다
same,fasting blood glucose plateau,"db/db mice; 10 mg/kg s.c. daily 21 days, persisted to day 111, p<0.001",~5 mmol/L
same,"brain, spleen, heart weight","db/db mice; 10 mg/kg, day 111",현저한 효과가 관찰되지 않았다
same,epididymal (p<0.05) and retroperitoneal (p<0.01) fat mass,"db/db mice; 10 mg/kg, day 111",현저한 감소를 관찰했다
same,kidney (p<0.05) and liver (p<0.01) mass,"db/db mice; 10 mg/kg, day 111",현저한 감소가 관찰되었다
same,"plasma insulin, MCP-1, IL-6, tPAI-1, TNF","db/db mice; 10 mg/kg, days 57, 77, 108",현저한 효과가 발견되지 않았으며
same,plasma resistin,"db/db mice; 10 mg/kg, days 77 and 108",현저하게 높았다
same,"24 h food and water intake, urine and faeces production","db/db mice; 10 mg/kg, metabolic cages",현저한 효과는 관찰되지 않았다
same,body weight gain,"db/db mice; 10 mg/kg, from day 28 to 111",명확하고 현저한 예방
same,injection-site finding in subcutaneous tissue,"db/db mice; high dose, after about 2 weeks of dosing, progressed to open wounds, healed after end of dosing",결절 섬유화가 발견되었고
same,lymphocyte recruitment and total cell number in BAL,C57BL/6 mice; 0.001 mg/kg s.c.,현저하게 감소시켰다
same,"decrease of inflammatory cell accumulation, fibrotic areas, loss of lung architecture (histology)",C57BL/6 mice; 0.001 mg/kg,관찰되었으나
same,lymphocyte recruitment and total cell number in BAL,C57BL/6 mice; 0.1 mg/kg s.c.,효과가 없었다
same,"decrease of inflammatory cell accumulation, fibrotic areas, loss of lung architecture (histology)",C57BL/6 mice; 0.1 mg/kg,관찰되지 않았다
same,effect on PAN-induced glomerulosclerosis,"Wistar rats; 1 mg/kg, 7 weekly i.v. injections",효과가 없었다
same,effect on PAN-induced glomerulosclerosis,"Wistar rats; 4 mg/kg, 4 i.v. injections from day 21",강한 효과를 초래하였다
same,PAN-induced glomerulosclerosis,"Wistar rats; 7 weekly i.v. injections, 2 and 4 mg/kg",용량 의존적으로 현저하게 감소시키는
same,decrease in plasma LDL,Wistar rats; especially 4 mg/kg groups,현저하는 않더라도 관찰되었다
same,effect on body weight vs PAN/saline,"Wistar rats; rat, in vivo",관찰되지 않았다
same,islet function (static insulin secretion) after 18 h culture,rat pancreatic islets; 15-min ischemia,섬 기능에 영향을 미치지 않았다
same,glucose-induced insulin secretion vs ischemic rats,"rat pancreatic islets; 30-min ischemia, 100 μM",더 높았으며
same,islet apoptosis and necrosis,"rat pancreatic islets; 30-min ischemia, 100 μM",세포 자멸 및 괴사를 감소시키는
same,JNK and PAF2 phosphorylation induced by 15-min ischemia,"rat pancreatic islets; Western blot, Fig. 56",투여량 의존적으로 감소되는
same,intercontraction interval (ICI) and bladder capacity (BC) vs basal,[2],현저하게 증가시켰다
same,threshold pressure (ThP) vs basal,[2],현저한 감소
same,mice with more than 1 liver metastasis,[3]; 0.1 mg/kg PO,25%
same,mean body weight change at D-2,[3]; 0.1 mg/kg/adm PO,7.1±4.6%
same,number of mice without liver metastasis,[3]; 1 mg/kg PO,가장 높았으며
same,mice with more than 1 liver metastasis,"[3]; 1 mg/kg PO, vehicle 40%",12.5%
same,mice with more than 1 liver metastasis,[3]; 1 mg/kg SC,25%
same,"mortality D0-D9 (surgical complications) in the four treated groups, as listed","[3]; PO/SC 0.1 and 1 mg/kg Q1Dx14, vehicle 33%, group order not given",40% and 34% and 47%
same,tolerance of treatment,[3]; Q1Dx14,내약(tolerated)되었음
same,VZV spread (pfu) ± SD,[4]; 0.5 μM,260 ± 53 pfu
same,VZV spread (pfu) ± SD,[4]; 1.0 μM,212 ± 48 pfu
same,VZV spread (pfu) ± SD,[4]; 2.0 μM,312 ± 79 pfu
same,EC50,"[4]; interpolated from graph, read-out: EC50 (50% reduction of VZV yield)",~300 nM
same,lowest tested concentration preventing VZV replication,[5],0.25 µM
same,"accumulation in liver, especially Kupffer cells",[6],명백한 축적
same,NOAEL,[7],~600 µg
same,body weight vs vehicle-treated STZ rats,Sprague-Dawley rats [8],차이를 나타내지 않았다
same,"LPS-induced TNFa, IL-6, MCP-1 release",THP-1 cells,사이토카인 방출을 억제한다
same,"presence in choroid, bulbar conjunctiva, iris-ciliary body",[9]; 7 days after administration,여전히 존재함
same,detection in plasma,"[9]; rabbit, in vivo",항상 검출되지 않았다
same,tumour growth,[10],종양 성장을 현저하게 감소시켰다
same,JNK activity (pJNK/JNK) induced by H2O2,[11],JNK 활성을 억제하였다
same,fold less efficient than L-TAT-IB1(s) in decreasing JNK-mediated c-Jun phosphorylation,[12],10-20 배
same,tolerance (body weight),[13]; 1 mg/kg/inj i.v.,내약성이 우수함
same,T/C,[13]; 1 mg/kg/inj i.v. [Q4Dx4]x2,120%
same,mean survival time (as headed),"[13]; 1 mg/kg/inj i.v. [Q4Dx4]x2, vehicle 102",123 일
same,median survival time ± SD (as headed),"[13]; 1 mg/kg/inj i.v. [Q4Dx4]x2 from D10, D41, vehicle 102 ± 8",111 ± 14 days
same,AUC 1-8 g (allodynia) vs vehicle,[14]; 50 mg/mL i.ves.,현저하게 감소되었다
same,AUC 8-60 g (hyperalgesia) vs vehicle,[14]; 50 mg/mL i.ves.,감소되었다
same,haemorrhage score,[14]; 50 mg/mL i.ves.,통계적으로 현저한 것에 이르지는 않았다
same,nociceptive scores vs vehicle,[14]; 50 mg/mL i.ves.,현저하게 감소시켰다
same,urinary bladder wall thickness,[14]; 50 mg/mL i.ves.,현저하게 감소되었다
same,nociceptive threshold vs vehicle,"[14]; 50 mg/mL, 500 μL i.ves.",현저하게 증가하였다
same,mean tubular epithelial degeneration/necrosis score (0-4),"Sprague-Dawley rats [15]; 2 mg/kg i.v. 20 min after reperfusion, 24 h, IR/vehicle 3.45 ± 0.52",2.67 ± 0.65
same,animals with degeneration/necrosis score 2,"Sprague-Dawley rats [15]; 2 mg/kg i.v., IR/vehicle 0/11",5/12
same,mean basophilic tubules score (0-4),"Sprague-Dawley rats [15]; 2 mg/kg i.v., IR/vehicle 1.36 ± 0.67",1.33 ± 0.65
same,tubular cast score (0-4),"Sprague-Dawley rats [15]; 2 mg/kg i.v., IR/vehicle 3.00 ± 0.00",2.50 ± 0.52
same,animals with degeneration/necrosis score 4,"Sprague-Dawley rats [15]; 2 mg/kg i.v., IR/vehicle 5/11",1/12
same,total tubular score,"Sprague-Dawley rats [15]; 2 mg/kg i.v., IR/vehicle 7.82 ± 0.98",6.50 ± 0.80

# — patent KR20170021349A, “다양한 질병의 치료를 위한 jnk 신호 전달 경로의 세포 투과성 펩타이드 억제자의 새로운 용도” (자이겐 인플라메이션 리미티드, priority 2014, dated 2017)
